Measurements as given in ChEMBL document CHEMBL6071133, “Discovery of novel penetrating peptides able to target human leukemia and lymphoma for enhanced PROTAC delivery” (Eur J Med Chem, 2024).
Active and inactive are the calls of the source. No cut-off for these calls is given here.

Tests used:
[1] = Drug uptake in human K562 cells assessed as perinuclear distribution and colocalization with nucleus at 10 umol/L incubated for 2 hrs by confocal laser microscopy; format: ADME, cell-based; conditions: k562, 2 h, 10 µM, dose 10 µmol/L
[2] = Drug uptake in human CCRF-CEM cells assessed as perinuclear distribution and colocalization with nucleus at 10 umol/L incubated for 2 hrs by confocal laser microscopy; format: ADME, cell-based; conditions: 10 µM, dose 10 µmol/L
[3] = Stability of the compound in fetal bovine serum assessed as parent compound remaining measured after 12 hrs by HPLC-MS analysis; format: ADME, cell-free, Bos taurus; conditions: cattle, read-out: Stability
K562 [4] = assay: Potentiation of IMA-PROTAC-induced cytotoxicity against human K562 cells assessed as inhibition of cell growth at compound: IMA-PROTAC concentration ratio of 5:1 incubated for 48 hrs in presence of 10 to 30 umo/L IMA-PROTAC by MTT assay relative to IMA-PROTAC; format: functional
K562 [5] = assay: Increase in membrane permeability of IMA-PROTAC in human K562 cells assessed as potentiation of IMA-PROTAC-induced Bcr-Abl degradation at PROTAC to compound concentration ratio of 1:5 pretreated with proteasome inhibitor, MG132 and carfilzomib followed by incubation with compound for 48 hrs in presence of 3 umol/L IMA-PROTAC by western blot analysis; format: functional, cell-based
K562 [6] = assay: Induction of apoptosis in human K562 cells assessed as late apoptotic cells at PROTAC to compound concentration ratio of 1:5 incubated for 48 hrs in presence of 3 umol/L IMA-PROTAC by AnnexinV-FITC/PI staining based flow cytometry (reference value: 0.01%); format: functional
K562 [7] = assay: Induction of apoptosis in human K562 cells assessed as necrotic cells at PROTAC to compound concentration ratio of 1:5 incubated for 48 hrs in presence of 3 umol/L IMA-PROTAC by AnnexinV-FITC/PI staining based flow cytometry (reference value: 0.1%); format: functional
K562 [8] = assay: Induction of cell cycle arrest in human K562 cells assessed as accumulation of cells at G2/M phase at PROTAC to compound concentration ratio of 1:5 incubated for 48 hrs in presence of 3 umol/L IMA-PROTAC by propidium iodide staining based flow cytometry; format: functional

CC(C)C[C@H](NC(=O)[C@H](Cc1csc2ccccc12)NC(=O)[C@@H](Cc1ccccc1)NC(=O)[C@H](Cc1ccccc1)NC(=O)CNC(=O)[C@@H](N)CS)C(=O)N[C@@H](CCCNC(=N)N)C(=O)N[C@@H](CO)C(=O)N[C@@H](CS)C(=O)O
Drug uptake [1]: Active
Drug uptake [2]: Active
remaining at 12 h [3]: 80%
inhibition (INH) (K562 [4]): 20%
Activity (K562 [5]): inactive
Activity (K562 [6]): 13.98%
Activity (K562 [7]): 0%
Activity (K562 [8]): Active
